The values below come from PMC11557314 (Frontiers in Pharmacology, 2024).

Like-named read-outs stand apart in the source and are kept apart here. Where no end group is shown, it is not given here. [ ]: non-standard residue; d: D form. βAla = NCCC(=O)O

For test [1], the target named is T1, hKOPr (Homo sapiens, UniProt P41145). Nature of the test: biochemical. The conditions noted are these: for EC50: read-out: Potency at hKOPr EC50.
The target of test [2] is T1, hKOPr. Type of test: binding. The conditions noted are these: for Ki: read-out: Ki hKOPr.
Test [3] addresses hMOPr (Homo sapiens, UniProt P35372). Nature of the test: Competitive radio binding assay with [3H]-DAMGO on hMOPr-CHO cell membranes. The following applies: read-out: Ki hMOPr; [3H]-DAMGO 1 nM, 60 min 25°C; mean ± SEM.
The target of test [4] is T2, hDOPr (Homo sapiens, UniProt P41143). Nature of the test: Competitive radio binding assay with [3H]-diprenorphine on hDOPr-CHO cell membranes.
The subject of test [5] is hKOPr. Also noted: method as in Bedini et al., 2020. The following applies: result in words; ref Bedini et al., 2020; cited from earlier work.
Test [6] addresses T2, hDOPr. Nature of the test: [35S]GTPγS functional assay on hDOPr-CHO cell membranes. It counts as biochemical. Here is the method: CHO cells stably transfected with human KOPr, MOPr, and DOPr (hKOPr-CHO, hMOPr-CHO, and hDOPr-CHO, respectively) were provided by Prof. Liu-Chen (Temple University, Philadelphia, United States). The cells were grown in Gibco™ Dulbecco’s minimal essential medium (DMEM) for hKOPr-CHO or Gibco™ DMEM/F-12 for hMOPr and hDOPr. Both media were supplemented with 10% FBS (Gibco™), GlutaMAX (100 μg/mL; Gibco™), penicillin/streptomycin (100 μg/mL; Gibco™), and geneticin (G418, 400 μg/mL; Gibco™). HEK 293 cells were grown in high-glucose DMEM supplemented with 10% FBS (Gibco™), GlutaMAX (100 μg/mL; Gibco™), and penicillin/streptomycin (100 μg/mL; Gibco™). Cell cultures were maintained in a Heracell™ 150i CO2 incubator at 37°C and 5.0% CO2.
Functional assays were conducted on hKOPr-CHO, hMOPr-CHO, and hDOPr-CHO cell membranes (see above). The membranes were prepared in a buffer containing 20 mM HEPES, 10 μM GDP, cell membrane (10–30 μg), and 0.05 nM [^35S]GTPγS. The buffer containing the cell membranes was incubated with an increasing concentration of the test peptide diluted in 1 × HEPES, pH 7.4, in a total volume of 1 mL, for 60 min at 25°C. The peptide solutions were replaced by diluents for untreated controls. Non-specific binding was determined using unlabeled 10 μM GTPγS. Samples were rapidly washed three times with Tris-HCl and filtered through glass fiber filters (GF/B Whatman). The bound radioactivity was measured by liquid scintillation (Carl Roth GmbH, Karlsruhe, Germany) counting on a Packard 1600 TR Tri-Carb Beta counter (Canberra, Belgium).
On the technique in general: GTPγS resists hydrolysis and so accumulates on activated G proteins.

In test [7] the target is T1, hKOPr. Nature of the test: cell-based. It counts as cell-based. The following applies: HEK293, read-out: β-Arrestin recruitment, efficacy at hKOPr Emax. (Activated receptors often draw arrestin, which recruitment assays turn into a signal.)
Test [8] deals with hKOPr. Nature of the test: Biased factor calculation from GTPγS and PRESTO-Tango data. Also noted: species or system human. The following applies: G-protein vs β-arrestin, DynA as reference; below 1 = β-arrestin bias. The source says:
To perform biased factor analyses, we followed the step-by-step protocol described by [Nagi and Pineyro (2016)]. In short, curve fitting was used to calculate τ and Ka values for G-protein and β-arrestin pathway activation. Log(τ/Ka) ratios were subtracted by log(τ/Ka) of DynA as the reference to yield ΔLog(τ/Ka) values for each peptide. In a final step for each peptide, ΔLog (τ/Ka) values for G-protein pathway activation were subtracted from ΔLog(τ/Ka) values for β-arrestin pathway activation and vice versa to calculate ΔΔLog(τ/Ka). The biased factor is yielded by delogging ΔΔLog (τ/Ka).
To confidently identify a G-protein-biased peptide of interest, it is essential to keep in mind that the responses we collected through GTPγS and PRESTO-Tango assay are not solely determined by drug signaling properties but also by the way the cell and different assays “perceive” the generation of this response. These different “perceptions” of the pharmacological stimulus may themselves be responsible for an imbalance among signals from different pathways. To avoid this, and to be able to correctly estimate whether a peptide is indeed biased, we applied the method proposed by [Kenakin et al. (2012)], that is based on the operational method proposed by [Black and Leff (1983)]. This method takes into consideration receptor occupation by the agonist, communication of the pharmacological stimulus to the system, and the processing of the stimulus by the system that produces the response.

The mark [9] stands for this setting: read-out: Efficacy at hKOPr Emax.
Setting [10] is: read-out: Ki hDOPr, [3H]-diprenorphine 1 nM, 60 min 25°C, mean ± SEM.

hMOPr, sequence (P35372 whole entry): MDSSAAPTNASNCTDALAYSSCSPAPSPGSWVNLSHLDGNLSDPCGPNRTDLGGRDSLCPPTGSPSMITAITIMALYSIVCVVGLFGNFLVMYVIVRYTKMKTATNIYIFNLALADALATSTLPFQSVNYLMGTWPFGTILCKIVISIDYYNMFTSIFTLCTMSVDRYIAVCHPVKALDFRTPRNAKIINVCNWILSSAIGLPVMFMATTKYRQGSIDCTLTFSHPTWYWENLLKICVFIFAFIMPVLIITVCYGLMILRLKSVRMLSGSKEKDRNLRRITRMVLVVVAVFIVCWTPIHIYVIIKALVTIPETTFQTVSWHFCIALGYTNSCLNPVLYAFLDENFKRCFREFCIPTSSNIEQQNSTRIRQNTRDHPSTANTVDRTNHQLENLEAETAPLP
T1 sequence (P41145 whole entry): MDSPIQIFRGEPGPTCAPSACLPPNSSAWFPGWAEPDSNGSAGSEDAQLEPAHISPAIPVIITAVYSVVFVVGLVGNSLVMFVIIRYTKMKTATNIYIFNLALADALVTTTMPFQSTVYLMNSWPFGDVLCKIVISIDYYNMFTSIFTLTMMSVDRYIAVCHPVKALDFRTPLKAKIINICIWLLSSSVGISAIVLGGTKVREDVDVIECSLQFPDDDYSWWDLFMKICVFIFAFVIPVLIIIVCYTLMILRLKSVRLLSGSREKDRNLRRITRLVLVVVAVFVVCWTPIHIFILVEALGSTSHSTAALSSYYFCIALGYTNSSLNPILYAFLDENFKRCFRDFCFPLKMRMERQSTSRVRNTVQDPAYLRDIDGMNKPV
T2 sequence (P41143 whole entry): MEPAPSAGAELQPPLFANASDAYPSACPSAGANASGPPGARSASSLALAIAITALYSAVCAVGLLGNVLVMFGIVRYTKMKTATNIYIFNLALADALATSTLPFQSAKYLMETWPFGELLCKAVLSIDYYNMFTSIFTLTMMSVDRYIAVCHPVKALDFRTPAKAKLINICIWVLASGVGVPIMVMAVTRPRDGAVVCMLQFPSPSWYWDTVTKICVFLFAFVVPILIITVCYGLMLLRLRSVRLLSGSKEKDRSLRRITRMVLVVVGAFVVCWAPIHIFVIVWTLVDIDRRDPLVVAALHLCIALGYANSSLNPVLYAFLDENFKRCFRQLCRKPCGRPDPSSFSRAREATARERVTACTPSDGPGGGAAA

What is called Emax is the greatest response seen or fitted, relative to the assay's reference. As for YGGFLRRQFAVVT [DynB_K10 A], the Emax in test [1] (setting [9]) amounted to 132 ± 3.9%.
Broadly, the Ki is a measure of affinity in units of concentration, obtained from inhibition or displacement. By EC50 is commonly meant the concentration at which the effect is half-maximal. In the case of YGMFLRRHFKVVT [DynB_G3M/Q8H], in test [2], the “Selectivity DOPr/KOPr” value is 459, the “Selectivity MOPr/KOPr” value is on record as 268 and the Ki amounted to 0.36 nM. The Ki in test [3] came to 97.1 ± 15.8 nM. Further, the Ki in test [4] (setting [10]) was 167 ± 19 nM. Further, in test [1], the “agonist category at hKOPr (GTPγS)” value is given as “partial agonists” and the EC50 stood at 5.43 ± 0.53 nM. Also, in test [1] (setting [9]), the Emax was found to be 42.1 ± 1.3%.
As to YGAFLRRQFKVVT [DynB_G3A], in test [2], the “Selectivity DOPr/KOPr” value is 149, the “Selectivity MOPr/KOPr” value was 39 and the Ki was found to be 2.13 nM. Further, the Ki in test [3] was found to be 82.3 ± 7.9 nM. For the same compound, the Ki in test [4] (setting [10]) was found to be 317 ± 34.1 nM. Moreover, in test [1] (setting [9]), the Emax turned out to be 83.4 ± 5.5%. Moreover, the EC50 in test [1] was found to be 27.9 ± 8.72 nM.
On to YGGFLRRAFKVVT [DynB_Q8A], for which the Emax in test [1] (setting [9]) was determined as 125 ± 12.3%.
Consider YGAFSRRQFKVVT [DynB_G3A/L5S], for which, in test [2], the “Selectivity DOPr/KOPr” value is 2,195, the “Selectivity MOPr/KOPr” value was 57 and the Ki is 1.73 nM. Further, in test [3], the Ki stood at 98.3 ± 5.9 nM. Further, in test [4] (setting [10]), the Ki stood at 3790 nM. For the same compound, in test [1], the “decrease of potency compared to DynB_WT” value was “more than 20 fold”, the “potency for hKOPr as compared to DynB (GTPγS)” value was “strongly reduced potency” and the EC50 stood at 116 ± 11.2 nM. Moreover, the Emax in test [1] (setting [9]) turned out to be 92.5 ± 5.7%.
In the case of cyclo(FG[βAla][dW]) [LOR17], the “G-protein bias at the hKOPr” value in test [5] was “strong G-protein bias”.
For the compound YGAFLRRQFAVVT [DynB_G3A/K10 A], in test [2], the “Selectivity DOPr/KOPr” value is 317, the “Selectivity MOPr/KOPr” value came out at 58 and the Ki was 1.57 nM. The Ki in test [3] was found to be 90.4 ± 7.6 nM. The Ki in test [4] (setting [10]) was found to be 497 ± 105 nM. Besides, in test [1] (setting [9]), the Emax came out at 84 ± 3.6%. Also, the EC50 in test [1] stood at 16.7 ± 2.45 nM.
FGGFLRRQFKVVT [DynB_Y1F]: the “Selectivity DOPr/KOPr” value in test [2] came to 44. In addition, the Ki amounted to 37.3 nM in test [2], 217 ± 13.5 nM in test [3] and 1620 nM in test [4] (setting [10]). Besides, the “potency for hKOPr as compared to DynB (GTPγS)” value in test [1] is listed as “strongly reduced potency”. Also, the Emax in test [1] (setting [9]) was found to be 110 ± 5.5%. In test [1], the EC50 is 393 ± 47.3 nM.
For YGGFLRRHFKVVT [DynB_Q8H], in test [2], the “Selectivity DOPr/KOPr” value is listed as 507, the “Selectivity MOPr/KOPr” value worked out at 36 and the Ki was 0.21 nM. The inhibition constant (Ki) in test [3] came out at 7.7 ± 1.4 nM. For the same compound, the Ki in test [4] (setting [10]) worked out at 106 ± 17.1 nM. Further, the maximal response (Emax) in test [1] (setting [9]) is 111.5 ± 0.9%. Further, the EC50 in test [1] came out at 2.25 ± 0.47 nM.
Take `CC(C)C[C@H](NC(=O)[C@H](Cc1ccccc1)NC(=O)CNC(=O)CNC(=O)[C@@H](N)Cc1ccc(O)cc1)C(=O)N[C@@H](CCCNC(=N)N)C(=O)N[C@@H](CCCNC(=N)N)C(=O)N[C@@H](CCC(N)=O)C(=O)N[C@@H](Cc1ccccc1)C(=O)N[C@@H](CCCCN)C(=O)N[C@H](C(=O)N[C@H](C(=O)N[C@H](C(=O)O)[C@@H](C)O)C(C)C)C(C)C` [DynB_WT, dynorphin B, reference compound]: the affinity in test [4], expressed as Ki, was 80.2 ± 6.4 nM. Further, in test [1], the “hKOPr % stim, stimulation of [35S]GTPγS binding” value is on record as 120 ± 1.5%; the “preference for hKOPr over hDOPr (GTPγS)” value is recorded as 12 fold; the “preference for hKOPr over hMOPr (GTPγS)” value is given as 6 fold. Also, in test [1] (setting [9]), the Emax was determined as 120 ± 1.5%. Besides, the Emax in test [1] (read-out: Emax higher than DynA) came out at 20%. Besides, in test [6], the EC50 stood at 59.3 ± 6.7 nM. Also, the “hDOPr % stim, stimulation of [35S]GTPγS binding” value in test [6] (Table 3, normalized to DynA, mean ± SEM) came out at 104 ± 3.6%. For the same compound, in test [7], the Emax was determined as 111 ± 5.3%. The “biased factor at hKOPr” value in test [8] is 0.8 ± 0.2.
Turning to YGMFSRRQFKVVT [DynB_G3M/L5S], in test [2], the “Selectivity DOPr/KOPr” value is reported as 1,115, the “Selectivity MOPr/KOPr” value was 40 and the Ki stood at 7.24 nM. Moreover, the Ki in test [3] came to 290 ± 17.9 nM. Further, the Ki in test [4] (setting [10]) was 8080 nM. For the same compound, in test [1], the “agonist category at hKOPr (GTPγS)” value was “partial agonists”, the “potency for hKOPr as compared to DynB (GTPγS)” value is recorded as “strongly reduced potency” and the EC50 worked out at 170 ± 23.7 nM. For the same compound, the Emax in test [1] (setting [9]) was 52.6 ± 1.6%.
Take YGMFLRRQFKVVT [DynB_G3M]: in test [2], the “Selectivity DOPr/KOPr” value is given as 141, the “Selectivity MOPr/KOPr” value is recorded as 193 and the Ki came out at 0.61 nM. For the same compound, the Ki in test [3] turned out to be 117 ± 6.9 nM. The Ki in test [4] (setting [10]) worked out at 85.3 ± 16.4 nM. Besides, in test [1], the “agonist category at hKOPr (GTPγS)” value was “partial agonists” and the concentration for a half-maximal effect (EC50) is 14.1 ± 4.17 nM. Further, the Emax in test [1] (setting [9]) worked out at 54.5 ± 1.8%.
In the case of YGAFLRRHFKVVT [DynB_G3A/Q8H], in test [2], the “Selectivity DOPr/KOPr” value is listed as 1,508, the “Selectivity MOPr/KOPr” value is 137 and the Ki amounted to 0.3 nM. Besides, in test [3], the Ki was 41.9 ± 1.3 nM. Further, the Ki in test [4] (setting [10]) was determined as 460 ± 44.2 nM. Moreover, in test [1], the “agonist category at hKOPr (GTPγS)” value is “partial agonists” and the EC50 was 6.77 ± 0.82 nM. The Emax in test [1] (setting [9]) turned out to be 74.9 ± 1.6%.
